Tests used:
[1] = target: T1, β2-AR (Homo sapiens, UniProt P07550); test: NanoBiT complementation: mini-Gαs recruitment to β2-AR, Schild analysis
Target sequence in this assay (P07550 whole entry): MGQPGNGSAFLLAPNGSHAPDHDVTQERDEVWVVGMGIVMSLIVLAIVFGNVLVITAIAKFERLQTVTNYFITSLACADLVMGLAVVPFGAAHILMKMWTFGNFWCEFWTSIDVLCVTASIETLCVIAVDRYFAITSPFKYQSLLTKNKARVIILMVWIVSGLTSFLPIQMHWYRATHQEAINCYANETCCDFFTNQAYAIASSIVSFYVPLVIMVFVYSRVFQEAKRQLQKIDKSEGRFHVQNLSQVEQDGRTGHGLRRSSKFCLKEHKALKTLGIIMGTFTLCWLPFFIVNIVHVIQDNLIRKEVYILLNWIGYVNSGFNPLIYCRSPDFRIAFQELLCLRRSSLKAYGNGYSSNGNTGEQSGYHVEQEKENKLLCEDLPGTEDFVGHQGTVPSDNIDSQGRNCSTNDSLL
Method: (§2) Mixed stable populations of HEK-β2AR-β-arrestin2, or HEK-β2AR-mGs cells were generated by selection in G418 (0.8 mg^−1) and zeocin (200 μg mL^−1) for 7–10 days, in DMEM, supplemented with 10% fetal bovine serum (FBS; Sigma Aldrich).
(§3) The antagonist affinity (KD) was then estimated by a Schild plot of log [CR-1] against log [B] (the antagonist concentration) using the relationship: Log[CR−1]=Log[B]−LogKD.

[2] = UV-Vis absorbance spectra; format: physicochemical; settings: 25 μM in HBSS buffer with 1% DMSO
Method: (§1) Solubility in buffer was explored for all compounds using nephelometry ([Bevan and Lloyd, 2000]) and these studies indicate good solubility of all azobenzene photoswiches up to at least 100 μM (Figure S1). […] For all compounds, 360 nm induces a large change in absorbance spectrum compared with the non-illuminated (dark) compounds (Table 1, Figure 2A, and S1), indicating photoisomerization to the cis-isomer. The absorbance peak (λmax) of Opto-prop-1-3 ranged between 319 and 347 nm for the trans-isomers and between 423 and 429 for the cis-isomers (Table 1), as is typical for azobenzene compounds ([Hauwert et al., 2018]). […] The photochemical conversions were determined by continuous illumination of the Opto-prop compounds with near UV-light (360 ± 20 nm) as 10-mM solutions in DMSO. Based on LCMS analysis, it was observed that all compounds obtained a high level of conversion to the cis-isomer with a photostationary state (PSS) of >88 area % cis-isomer (i.e. PSScis; Table 1). Subsequent back-switching to PSStrans with 434 nm maintained 22–29 area % cis-isomer (Table 1). The thermal relaxation of the PSScis state of the photoswitchable ligands was monitored over time by measuring absorbance at 254 nm. Only minor thermal relaxation to the trans-isomer could be detected at 20°C (not shown). An estimate of the relaxation rate at 20 °C was determined using a method by Priimagi et al. ([Ahmed et al., 2017]), which was performed in Hanks’ balanced salt solution (HBSS) using increased temperatures to enhance the speed of thermal relaxation. The Opto-prop ligands are all very stable as cis-isomer after illumination, with thermal relaxation half-lives of >10 days at 20 °C (See Table 1 and Figure S1).
UV-Vis spectra were obtained using a Thermo-scientific Evolution 201 PC spectrophotometer. Illumination was executed using a Sutter instruments Lambda LS with a 300 Watt full-spectrum lamp connected to a Sutter instruments Lambda 10-3 optical filter changer equipped with 360 ± 20 nm, 400 ± 5 nm, 434 ± 9 nm and 460 ± 5 nm filters. The light intensity is 0.93 mW/mm^2 using the 360 ± 20 nm filter, 0.22 mW/mm^2 using the 400 ± 5 nm filter, 0.79 mW/mm^2 for the 434 ± 9 nm filter and 0.26 mW/mm^2 for the 460 ± 5 nm filter as measured using a Thorlabs PM16-401 power meter.
For the determination of the UV-Vis spectra shown in Figure 2A, compounds (25 μM in 1% DMSO/HBSS buffer) were illuminated in Hellma Suprasil quartz 114-QS cuvettes with either a 360, 400, 434 or 460 nm filter for the indicated time. For the determination of PSScis and PSStrans states by UV spectroscopy (Figures S1D–S1F), a solution of the compound in 1% DMSO/HBSS buffer (25 μM) in a vial was illuminated to PSS cis with 360 nm (typically 4–5 min) and subsequently to PSS trans with 434 nm (typically 2–5 min). UV spectra were recorded.

[3] = target: T1, β2-AR; test: [3H]DHA radioligand displacement on membranes of HEK293T cells expressing β2-AR; settings: for Ki: β2-AR
Target sequence in this assay (P07550 whole entry): as above
Method: (§4) Membranes of HEK293T-cells transiently expressing the receptor of interest were co-incubated with the tritiated β1/β2-AR antagonist dihydroalprenolol ([^3H]DHA, Figure S2 depicts saturation binding experiments), together with increasing concentrations of the competing unlabeled ligand.
(§5) Two million HEK293T cells were seeded in a 10cm^2 dish and were transiently transfected the next day with 1 μg human β1-AR or the β2-AR plasmid DNA, 4 μg empty pcDEF3 plasmid DNA and 30 μg linear 25 kDa polyethyleneimine (PEI; Polysciences Warrington, USA) in a 150 mM NaCl solution. […] Two days after transfection, cells were resuspended and washed (3 times) with PBS and pelleted by centrifugation steps at 1500 g. After the final centrifugation step, cell pellets were reconstituted into ice-cold Tris-HCl buffer (15 mM, supplemented with 0.3 mM EDTA and 2 mM MgCl2 at pH7.4) and dounce-homogenised by plunging the pestle 10 times with 1,500 rpm (Tamson, the Netherlands). The homogenates were frozen and thawed twice using liquid nitrogen, after which the membranes were isolated using an ultra-centrifuge L70 at 40,000 g (Beckman Coulter, USA). Cell pellets were then washed and reconstituted in ice-cold 20 mM Tris-HCl buffer supplemented with 250 mM Sucrose at pH 7.4. Finally, the membrane samples where homogenized using a 23-gauge needle, snap-frozen with liquid nitrogen and stored until further experimentation at −80 °C. The protein content was determined using a BCA protein assay kit (Thermo Scientific, USA).
(§6) On the day of the experiment 0.25–0.5 μg membranes expressing either the β1-AR or the β2-AR, were co-incubated with [^3H]DHA (Perkin Elmer, USA) and increasing concentrations unlabeled ligand in HBSS buffer (Thermo Scientific, with Ca^2+ and Mg^2+) supplemented with 0.1% BSA for 1 h at 25 °C under gentile agitation. Either a 4 nM or 1 nM concentration of [^3H]DHA was used in combination with membranes expressing either the β1-AR or β2-AR, respectively. Binding reactions were terminated by filtration over a PEI coated GF/C filter (Perkin Elmer) using ice-cold 50 mM Tris-HCl buffer with 500 mM NaCl at pH 7.4. GF/C plates were dried at 52 °C and filter bound [^3H]DHA was quantified by adding 25 μL/well Microscint-O scintillation liquid and counting luminescence using the Wallac Microbeta counter, as described before.
(§7) IC50 values were determined by fitting the concentration-dependent displacement of [^3H]DHA by unlabeled ligands, with a three-parameter sigmoidal model in GraphPad Prism. […] Competition binding graphs represent the pooled data of ≥3 experiments, normalized to the fitted top and bottom of the reference sigmoidal displacement curve of unlabeled DHA.

[4] = target: T1, β2-AR; test: Kinetic β-arrestin2 recruitment to β2-AR with 360 nm light flashes; format: cell-based; set-up: expressed in transfected cells; host or cells: HEK293T, transient (PEI); settings: 1 μM with 32 nM isoprenaline; six 5-min cycles of 360 nm flashes
Method: It was further explored whether the activity of the β2-AR could be modulated dynamically by treating cells with light (Figure 5). Cells that overexpress a split-nanoluc luciferase biosensor system for βarrestin2 recruitment to the β2-AR were treated with isoprenaline in the presence of Opto-prop-2. A time-dependent activation of the receptor is observed for 10 min after which cells were pulsed with light flashes of 360 nm.
Cells incubated with Opto-prop-2 are depicted in green and magenta before and after illumination, respectively. Data points represent the mean ± SEM of the three experiments, normalized to the luminescence at 10 min as 100%.
HEK293T cells were transiently transfected with 2 μg plasmid DNA per million using linear PEI at a DNA:PEI weight-ratio of 1:6. ([Zarca et al., 2021]) The used DNA plasmids were β2-AR-SmBit (0.4 μg), β-arrestin2-LgBit (0.6 μg) and pcDEF3 (non-coding DNA; 1 μg). The DNA/PEI transfection mix in 150 mM NaCL was vortexed and incubated for 15 min before adding it to a cell suspension with a final concentration of 300,000 cell/mL. Cells were then immediately plated 30,000 cells/well on a white 96-well plate (Greiner). […] After 10 min the protocol setting were switched to treat cells repeadetly with 360 nm light flashes (40 times 200 flashes over 5 min) followed after each 5 min cycle with detection of luminescence, up to a total detection time of 40 min.
Target sequence in this assay (P07550 whole entry): as above

[5] = Cis-to-trans thermal relaxation, Arrhenius extrapolation; format: physicochemical; settings: PSScis sample 25 μM in HBSS buffer with 1% DMSO; Arrhenius extrapolation to 20 °C
Method: as §1
Cis-to-trans thermal relaxations were performed in the dark at 25 μM of the PSS360 state of the Opto-prop-1, -2 or -3 in HBSS buffer with 1% DMSO at various temperatures (60°C, 70°C and 80°C). Absorbance was repeatedly measured at 320, 320 and 347 nm for Opto-prop-1, -2 or -3, respectively, with 60 s intervals.

[6] = target: T1, β2-AR; test: Conformational β2-AR BRET sensor in HEK293A cells
Target sequence in this assay (P07550 1-369): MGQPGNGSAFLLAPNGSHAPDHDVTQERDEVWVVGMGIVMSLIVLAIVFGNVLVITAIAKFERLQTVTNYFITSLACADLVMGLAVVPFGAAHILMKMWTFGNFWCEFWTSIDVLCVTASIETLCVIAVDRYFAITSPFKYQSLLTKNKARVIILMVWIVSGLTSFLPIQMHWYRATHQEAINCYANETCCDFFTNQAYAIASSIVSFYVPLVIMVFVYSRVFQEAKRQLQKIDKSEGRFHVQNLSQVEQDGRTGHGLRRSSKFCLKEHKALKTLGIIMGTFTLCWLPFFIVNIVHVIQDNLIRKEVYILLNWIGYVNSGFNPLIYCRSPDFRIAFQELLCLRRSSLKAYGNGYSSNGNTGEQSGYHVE
Method: The next day, cells were washed with HBSS and incubated with a 1/1000 stock solution of furimazine. […] Wells pre-incubated with 0.1% DMSO/HBSS control were treated with vehicle control.
Raw BRET ratios were defined as acceptor emission/donor emission.
Antagonist pKB values were calculated using the agonist potency and concentration together with the antagonist IC50 values, using the Cheng-Prusoff equation.

[7] = target: β1-AR (Homo sapiens, UniProt P08588); test: [3H]DHA radioligand displacement on membranes of HEK293T cells expressing β1-AR; settings: for Ki: β1-AR
Method: as §4, §5, §6, §7

[8] = target: T1, β2-AR; test: NanoBiT complementation: β-arrestin2 recruitment to β2-AR, Schild analysis
Target sequence in this assay (P07550 whole entry): as the sequence (P07550 whole entry) above
Method: as §2, §3

[9] = at PSScis, agonist isoprenaline
[10] = fold difference between Ki of trans and Ki at PSScis
[11] = isomer state with higher affinity
[12] = pKi PSScis, illuminated to PSScis (360 nm) before experiment
[13] = pKi trans, without prior illumination (trans-isomer)

Sequence of β1-AR (P08588 whole entry): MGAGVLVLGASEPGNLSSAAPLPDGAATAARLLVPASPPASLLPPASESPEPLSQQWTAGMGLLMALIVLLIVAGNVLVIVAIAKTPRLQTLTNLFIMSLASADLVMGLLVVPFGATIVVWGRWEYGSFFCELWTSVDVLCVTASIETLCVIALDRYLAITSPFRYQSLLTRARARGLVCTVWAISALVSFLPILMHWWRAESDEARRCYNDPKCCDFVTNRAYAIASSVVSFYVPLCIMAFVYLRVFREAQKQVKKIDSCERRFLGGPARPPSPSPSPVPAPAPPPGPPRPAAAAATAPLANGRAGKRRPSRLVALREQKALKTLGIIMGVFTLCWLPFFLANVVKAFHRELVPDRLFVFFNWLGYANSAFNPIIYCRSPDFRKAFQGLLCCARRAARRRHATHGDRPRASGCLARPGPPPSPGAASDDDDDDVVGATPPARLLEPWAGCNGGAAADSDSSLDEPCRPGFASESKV

Which results are given for CC(C)NCC(O)COc1cccc(N=Nc2ccccc2)c1 (stereo not drawn) [Opto-prop-2]?
Kb [1]: 25.1 nM; slope of the Schild-plot, mini-Gαs recruitment [1, 9]: 1.2; λmax cis ([2]; cis-isomer): 424 nm; λmax trans ([2]; trans-isomer): 319 nm; difference in binding affinity β2-AR vs β1-AR ([3]; cis-isomer): 1.9 log unit; selectivity in binding β2-AR over β1-AR ([3]; cis-isomer (PSScis)): 78 fold; fold Ki trans vs PSScis at β2-AR [3, 10]: 587 fold; Active state at β2-AR [3, 11]: cis; Ki [3, 12]: 2.51 nM; Ki ([3]; pKi at PSStrans, at PSStrans (434 nm back-switching)): 31.6 nM; Ki [3, 13]: 1580 nM; β2-AR activity (β-arrestin2 recruitment) after 360 nm light flashes [4]: a drop in β2-AR activity is observed; t1/2 20°C (thermal relaxation of cis-isomer) [5]: >240 h; IC50 [6]: 31.6 nM; Kb [6]: 2 nM; fold Ki trans vs PSScis at β1-AR [7, 10]: 21 fold; Active state at β1-AR [7, 11]: cis; Ki [7, 12]: 200 nM; Ki [7, 13]: 5010 nM; Kb [8]: 25.1 nM; slope of the Schild-plot, β-arrestin2 recruitment [8, 9]: 0.9

— PMC9436767, “Optical control of the β2-adrenergic receptor with opto-prop-2: A cis-active azobenzene analog of propranolol” (iScience, 2022)
